This passage reports IC50 and viability, T/C results from PubChem BioAssay AID1918943 (Molecular Pharmacology Branch, DTP, NCI, 2023).

Several values for one entry are separate records, joined by “and”; a condition that tells them apart may be missing. Equal values may be shown once. A value given as a limit tells only on which side of the number the result lay.

This test deals with 855422-203-R-J1-PDC complex spheroid viability. Nature of the test: Anticancer human tumor 855422-203-R-J1-PDC patient-derived bladder carcinoma cell line growth inhibition. As to conditions: for viability, T/C: stronger effect = lower value. An outline of the steps: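 Multicellular complex spheroids of tumor cells with human endothelial cells (HUVEC) and mesenchymal stem cells; the LSD1 inhibitor iadademstat was combined with standard-of-care or investigational agents. Top concentration at or near clinical Cmax, half-log dilutions; final DMSO ≤0.25%.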

[1] abbreviates: curve of first compound, second compound 0.1 µM.
Setting [2] is: curve of first compound, second compound 0.316 µM.
[3] abbreviates: curve of first compound, second compound 1 µM.
The mark [4] stands for this setting: curve of first compound, second compound 3.16 µM.
[5] abbreviates: curve of first compound, second compound 10 µM.
The mark [6] stands for this setting: second compound 0.1 µM, first compound 0.000316 µM.
Where [7] appears, read: second compound 0.1 µM, first compound 0.001 µM.
Setting [8] is: second compound 0.1 µM, first compound 0.00316 µM.
[9] abbreviates: second compound 0.1 µM, first compound 0.01 µM.
Where [10] appears, read: second compound 0.1 µM, first compound 0.0316 µM.
Where [11] appears, read: second compound 0.1 µM, first compound 0.1 µM.
The mark [12] stands for this setting: second compound 0.316 µM, first compound 0.000316 µM.
Where [13] appears, read: second compound 0.316 µM, first compound 0.001 µM.
The mark [14] stands for this setting: second compound 0.316 µM, first compound 0.00316 µM.
Setting [15] is: second compound 0.316 µM, first compound 0.01 µM.
[16] abbreviates: second compound 0.316 µM, first compound 0.0316 µM.
[17] abbreviates: second compound 0.316 µM, first compound 0.1 µM.
Setting [18] is: second compound 1 µM, first compound 0.000316 µM.
Where [19] appears, read: second compound 1 µM, first compound 0.001 µM.
Setting [20] is: second compound 1 µM, first compound 0.00316 µM.
The mark [21] stands for this setting: second compound 1 µM, first compound 0.01 µM.
Where [22] appears, read: second compound 1 µM, first compound 0.0316 µM.
Setting [23] is: second compound 1 µM, first compound 0.1 µM.
Setting [24] is: second compound 3.16 µM, first compound 0.000316 µM.
Setting [25] is: second compound 3.16 µM, first compound 0.001 µM.
Setting [26] is: second compound 3.16 µM, first compound 0.00316 µM.
[27] abbreviates: second compound 3.16 µM, first compound 0.01 µM.
Where [28] appears, read: second compound 3.16 µM, first compound 0.0316 µM.
[29] abbreviates: second compound 3.16 µM, first compound 0.1 µM.
[30] abbreviates: second compound 10 µM, first compound 0.000316 µM.
Where [31] appears, read: second compound 10 µM, first compound 0.001 µM.
Where [32] appears, read: second compound 10 µM, first compound 0.00316 µM.
[33] abbreviates: second compound 10 µM, first compound 0.01 µM.
[34] abbreviates: second compound 10 µM, first compound 0.0316 µM.
The mark [35] stands for this setting: second compound 10 µM, first compound 0.1 µM.
Where [36] appears, read: second compound 0.1 µM, first compound 0.316 µM.
Where [37] appears, read: second compound 0.1 µM, first compound 1 µM.
Where [38] appears, read: second compound 0.1 µM, first compound 3.16 µM.
Setting [39] is: second compound 0.1 µM, first compound 10 µM.
[40] abbreviates: second compound 0.316 µM, first compound 0.316 µM.
[41] abbreviates: second compound 0.316 µM, first compound 1 µM.
Setting [42] is: second compound 0.316 µM, first compound 3.16 µM.
[43] abbreviates: second compound 0.316 µM, first compound 10 µM.
Where [44] appears, read: second compound 1 µM, first compound 0.316 µM.
Where [45] appears, read: second compound 1 µM, first compound 1 µM.
The mark [46] stands for this setting: second compound 1 µM, first compound 3.16 µM.
The mark [47] stands for this setting: second compound 1 µM, first compound 10 µM.
Setting [48] is: second compound 3.16 µM, first compound 0.316 µM.
Setting [49] is: second compound 3.16 µM, first compound 1 µM.
Setting [50] is: second compound 3.16 µM, first compound 3.16 µM.
Where [51] appears, read: second compound 3.16 µM, first compound 10 µM.
[52] abbreviates: second compound 10 µM, first compound 0.316 µM.
Where [53] appears, read: second compound 10 µM, first compound 1 µM.
Where [54] appears, read: second compound 10 µM, first compound 3.16 µM.
Setting [55] is: second compound 10 µM, first compound 10 µM.
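Further: drug exposure lasted 7 days starting on day 3 after seeding.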
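Wherever viability, T/C is given: luminescence viability as percent of DMSO vehicle wells = 100%.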

As to `CC(C)CC(NC(=O)C(Cc1ccccc1)NC(=O)c1cnccn1)B(O)O` (stereo not drawn) + NC1CC1c1ccc(-c2cccc(O)c2)cc1, the IC50 (as a rule, the concentration at which inhibition is half-maximal) is, setting by setting: under setting [1], 0.641 nM; under setting [2], 0.627 nM; under setting [3], 0.61 nM; under setting [4], 0.603 nM; under setting [5], 0.578 nM. In addition, the viability, T/C (as a rule, the result in the treated group divided by that in the control group, in per cent) under setting [6] was 127%; the viability, T/C under setting [7] is 1.42%; the viability, T/C under setting [8] is 0.04%; the viability, T/C under setting [9] was 0.01%; the viability, T/C under setting [10] was 0.03%; the viability, T/C under setting [11] was 0.14%. Also, the viability, T/C reads like this: under setting [12], 122%; under setting [13], 1.03%; under setting [14], 0.02%; under setting [15], 0.01%; under setting [16], 0.02%; under setting [17], 0.11%. Further, the viability, T/C was 115% under setting [18]; 0.89% under setting [19]; 0.02% under setting [20]; 0.01% under setting [21]; 0.02% under setting [22]; 0.12% under setting [23]. Besides, the viability, T/C is 113% under setting [24]; 0.68% under setting [25]; 0.03% under setting [26]; 0.02% under setting [27]; 0.03% under setting [28]; 0.12% under setting [29]. Further, the viability, T/C reads like this: under setting [30], 105%; under setting [31], 0.52%; under setting [32], 0.15%; under setting [33], 0.14%; under setting [34], 0.13%; under setting [35], 0.19%.
For `CC1(C)CCC(CN2CCN(c3ccc(C(=O)NS(=O)(=O)c4ccc(NCC5CCOCC5)c([N+](=O)[O-])c4)c(Oc4cnc5[nH]ccc5c4)c3)CC2)=C(c2ccc(Cl)cc2)C1` + NC1CCC(NC2CC2c2ccccc2)CC1, the 50% inhibitory concentration (IC50) under setting [1] is 6210 nM; the IC50 under setting [2] worked out at 6160 nM; the half-inhibitory concentration (IC50) under setting [3] was 6040 nM; the IC50 under setting [4] was determined as 5850 nM; the concentration for half-maximal inhibition (IC50) under setting [5] came out at 5530 nM. In addition, the viability, T/C by setting is: under setting [10], 103%; under setting [11], 94.7%; under setting [36], 95.6%; under setting [37], 101%; under setting [38], 93.4%; under setting [39], 19.2%. The viability, T/C runs as follows: under setting [16], 96.7%; under setting [17], 95.1%; under setting [40], 88.5%; under setting [41], 100%; under setting [42], 93.9%; under setting [43], 18%. For the same compound, the viability, T/C runs as follows: under setting [22], 94.4%; under setting [23], 99.1%; under setting [44], 78.7%; under setting [45], 93.3%; under setting [46], 102%; under setting [47], 16.2%. Also, the viability, T/C is 85.4% under setting [28]; 84.3% under setting [29]; 109% under setting [48]; 101% under setting [49]; 86.2% under setting [50]; 18.3% under setting [51]. Moreover, the viability, T/C under setting [34] is 82.3%; the viability, T/C under setting [35] was 78.4%; the viability, T/C under setting [52] was 92.4%; the viability, T/C under setting [53] is 72.2%; the viability, T/C under setting [54] is 83.8%; the viability, T/C under setting [55] is 16.2%.
For the compound `CC(C)CC(NC(=O)C(Cc1ccccc1)NC(=O)c1cnccn1)B(O)O` (stereo not drawn) + NC1CCC(NC2CC2c2ccccc2)CC1, the IC50 worked out at 0.527 nM under setting [1]; 0.428 nM under setting [2]; 0.484 nM under setting [3]; 0.498 nM under setting [4]; 0.463 nM under setting [5]. Further, the viability, T/C under setting [6] is 88%; the viability, T/C under setting [7] was 2.43%; the viability, T/C under setting [8] is 0.03%; the viability, T/C under setting [9] is 0.01%; the viability, T/C under setting [10] was 0.02%; the viability, T/C under setting [11] is 0.1%. The viability, T/C by setting is: under setting [12], 67.2%; under setting [13], 2.02%; under setting [14], 0.02%; under setting [15], 1.84%; under setting [16], 0.01%; under setting [17], 1.34%. Moreover, the viability, T/C is 78.2% under setting [18]; 1.83% under setting [19]; 0.03% under setting [20]; 0.01% under setting [21]; 0.01% under setting [22]; 2.03% under setting [23]. The viability, T/C is 81.7% under setting [24]; 1.37% under setting [25]; 0.09% under setting [26]; 0.01% under setting [27]; 0.02% under setting [28]; 0.05% under setting [29]. The viability, T/C reads like this: under setting [30], 74.6%; under setting [31], 0.29%; under setting [32], 0.05%; under setting [33], 0.08%; under setting [34], 0.12%; under setting [35], 0.14%.
For the compound `COc1cc(Nc2ncc3c(n2)-c2ccc(Cl)cc2C(c2c(F)cccc2OC)=NC3)ccc1C(=O)O`, the viability, T/C is 95.3% and 91.3% (compound 0.00316 µM); 96.3% and 104% (compound 0.01 µM); 80.6% and 79.7% (compound 0.0316 µM); 79.5% and 71.7% (compound 0.1 µM); 62.2% and 59.5% (compound 0.316 µM); 63.8% and 64.5% (compound 1 µM). In addition, the half-maximal inhibitory concentration (IC50) (curve of compound) was above 1000 nM.
With `NC1CC1c1ccc(-c2cccc(O)c2)cc1` (stereo not drawn), the viability, T/C by setting is: (compound 0.1 µM) 84.2%; (compound 0.316 µM) 93.7% [middle of 25 runs]; (compound 1 µM) 90.2% [middle of 25 runs]. In addition, the IC50 (compound alone, run of 12/07/2021) was above 10000 nM.
For the compound `O=C(C=Cn1cnc(-c2cc(C(F)(F)F)cc(C(F)(F)F)c2)n1)NNc1cnccn1`, the viability, T/C (compound 0.00316 µM) is 124% and 114%; the viability, T/C (compound 0.01 µM) is 125% and 86.4%; the viability, T/C (compound 0.0316 µM) was 52.5% and 44.8%; the viability, T/C (compound 0.1 µM) was 43.6% and 32.7%; the viability, T/C (compound 0.316 µM) was 38.7% and 27.1%; the viability, T/C (compound 1 µM) is 25% and 18.6%. The IC50 (curve of compound) was 37.5 nM and 29.4 nM.
Regarding `COc1ccc([C@@H](O)c2cc(-c3ncnc4cc(N5CCOCC5)ccc34)c(F)cc2Cl)nn1` + NC1CCC(NC2CC2c2ccccc2)CC1, the IC50 amounted to 3980 nM under setting [1]; 3750 nM under setting [2]; 3580 nM under setting [3]; 3120 nM under setting [4]; 3230 nM under setting [5]. In addition, the viability, T/C is 83.7% under setting [10]; 88.8% under setting [11]; 76.3% under setting [36]; 73.8% under setting [37]; 53.1% under setting [38]; 34.5% under setting [39]. For the same compound, the viability, T/C is, setting by setting: under setting [16], 88.5%; under setting [17], 89.4%; under setting [40], 73.4%; under setting [41], 69.3%; under setting [42], 53%; under setting [43], 33.5%. The viability, T/C under setting [22] is 87.1%; the viability, T/C under setting [23] was 84.7%; the viability, T/C under setting [44] was 73.3%; the viability, T/C under setting [45] was 68%; the viability, T/C under setting [46] is 53%; the viability, T/C under setting [47] is 30.8%. The viability, T/C by setting is: under setting [28], 85.2%; under setting [29], 78.2%; under setting [48], 75.1%; under setting [49], 68.2%; under setting [50], 48.4%; under setting [51], 31.3%. Besides, the viability, T/C runs as follows: under setting [34], 76.9%; under setting [35], 80%; under setting [52], 71.7%; under setting [53], 64.7%; under setting [54], 50.6%; under setting [55], 32.8%.
